Measured values taken from patent US20080153869A1, “Kinase Inhibitors” (priority 2004, published 2008).

What was measured:
[1] = molecular target: T1, AIK (Homo sapiens, UniProt O14965); test: Inhibition of AIK, Direct Fluorescence Polarization (IMAP); assay type: biochemical; settings: FP assay, 2.5 uM ATP, 2.5 nM AIK
T1 sequence (O14965 1-403): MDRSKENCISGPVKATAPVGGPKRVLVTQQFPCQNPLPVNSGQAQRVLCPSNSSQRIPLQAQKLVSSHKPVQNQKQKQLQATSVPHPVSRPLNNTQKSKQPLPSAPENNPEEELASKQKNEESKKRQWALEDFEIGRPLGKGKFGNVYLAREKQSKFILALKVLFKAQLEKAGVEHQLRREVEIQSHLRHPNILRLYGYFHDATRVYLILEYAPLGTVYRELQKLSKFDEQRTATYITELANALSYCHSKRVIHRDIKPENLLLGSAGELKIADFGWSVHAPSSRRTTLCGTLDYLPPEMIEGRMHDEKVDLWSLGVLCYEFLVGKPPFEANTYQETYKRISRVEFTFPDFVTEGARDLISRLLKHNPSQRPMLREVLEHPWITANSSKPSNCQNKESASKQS
Experimental: The inhibitory properties of compounds relative to AIK may be determined by the Direct Fluorescence Polarization detection method (FP) using a Greiner small volume black 384-well-plate format under the following reaction conditions: 50 mM Hepes pH 7.3, 10 mM MgCl2, 10 mM NaCl, 1 mM DTT, 0.01% Brij35, 100 nM Fluorescein-LRRASLG peptide (provided by SYNPEP), 5% DMSO, 2.5 uM ATP. Detection of the reaction product is performed by addition of IMAP binding reagent (Molecular Devices). Reaction product may be determined quantitatively by FP using an Analyst HT plate reader (Molecular Devices) with an excitation wavelength at 485 nm and emission at 530 nm and using a Fluorescein 505 dichroic mirror.
The assay reaction may be initiated as follows: 2 ul of (3×) 300 nM Fl-Peptide/7.5 uM ATP was added to each well of the plate, followed by the addition of 2 ul of (3×) inhibitor (2.5 fold serial dilutions for 11 data points for each inhibitor) containing 15% DMSO. 2 ul of (3×) 7.5 nM AIK solution may be added to initiate the reaction (final enzyme concentration was 2.5 nM for AIK). […] Fluorescence polarization readings of the resulting reaction mixtures may be measured after a 60-minute incubation at room temperature.
IC50 values may be calculated by non-linear curve fitting of the compound concentrations and fluorescent polarization values to the standard IC50 equation.

[2] = molecular target: c-KIT (Homo sapiens, UniProt P10721); test: Inhibition of c-KIT, TR-FRET; assay type: biochemical; settings: TR-FRET assay, 100 uM ATP, 0.13 nM c-Kit
Sequence of c-KIT (P10721 26-976): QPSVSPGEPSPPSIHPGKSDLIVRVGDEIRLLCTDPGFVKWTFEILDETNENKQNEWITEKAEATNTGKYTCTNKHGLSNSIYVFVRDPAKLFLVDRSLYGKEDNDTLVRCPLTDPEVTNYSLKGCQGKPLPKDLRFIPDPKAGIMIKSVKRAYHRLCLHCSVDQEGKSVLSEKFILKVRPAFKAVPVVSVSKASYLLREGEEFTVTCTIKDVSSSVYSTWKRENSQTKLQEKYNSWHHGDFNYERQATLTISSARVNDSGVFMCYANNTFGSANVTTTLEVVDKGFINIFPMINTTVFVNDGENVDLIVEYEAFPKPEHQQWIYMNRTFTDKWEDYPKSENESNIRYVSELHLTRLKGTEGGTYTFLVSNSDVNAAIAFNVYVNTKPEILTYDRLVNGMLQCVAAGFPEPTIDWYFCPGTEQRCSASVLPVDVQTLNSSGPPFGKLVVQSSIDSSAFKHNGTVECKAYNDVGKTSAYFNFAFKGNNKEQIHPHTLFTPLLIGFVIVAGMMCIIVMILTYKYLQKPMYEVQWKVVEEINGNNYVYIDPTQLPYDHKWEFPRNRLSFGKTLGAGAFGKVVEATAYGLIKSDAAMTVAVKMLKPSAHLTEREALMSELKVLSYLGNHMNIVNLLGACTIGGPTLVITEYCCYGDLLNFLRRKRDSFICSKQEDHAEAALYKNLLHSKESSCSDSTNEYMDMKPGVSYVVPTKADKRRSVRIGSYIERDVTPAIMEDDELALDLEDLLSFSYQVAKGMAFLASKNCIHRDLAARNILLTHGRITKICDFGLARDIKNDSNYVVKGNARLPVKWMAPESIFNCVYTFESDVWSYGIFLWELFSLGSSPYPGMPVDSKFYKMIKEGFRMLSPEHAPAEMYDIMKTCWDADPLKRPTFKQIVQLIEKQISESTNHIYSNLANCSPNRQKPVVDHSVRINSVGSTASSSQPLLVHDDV

SMILES: Cc1cc(-c2c(O)[nH]c3ccccc23)nc(N)n1 [Example 1, 3-(2-Amino-6-methyl-pyrimidin-4-yl)-1H-indol-2-ol]
- IC50 [1]: < 100 µM
- IC50 [2]: < 100 µM
